The test system of data set [1] is TRACP 5b. In words: Enzymatic activity of TRACP 5b bound to immobilized anti-TRACP 5b antibody plate, end-point absorbance. It counts as biochemical, human. The method, then:
(§1) The pH of a buffer solution containing a substrate CNPP was varied from 5.6 to 6.8 and the activity of TRACP 5b and TRACP 5a for this substrate was assayed. This substrate buffer solution had the following composition: CNPP 5 mM, Mes 0.1 M and sodium tartrate 40 mM. Its pH was adjusted to values varying from 5.6 to 6.8 by steps of 0.2. TRACP 5b and TRACP 5a used as samples were prepared by separating human serum by the use of a Heparin column and concentrating a fraction corresponding to a peak due to each of TRACP 5a and TRACP 5b. As TRACP 5a, there was used a sample having such a concentration that its absorbance was 0.8 at pH 5.6 (the optimum for TRACP 5a). As TRACP 5b, there was used a sample having such a concentration that its absorbance was 0.8 at pH 6.4 (the optimum for TRACP 5b). As to a method for the assay, a plate having an anti-TRACP 5b antibody Trk27 immobilized thereon was used and 100 μl of each sample was added to each well and stirred with shaking at room temperature for 1 hour. Then, the reaction solution was discarded and each well was washed three times with 200 μl of Tris buffer containing 0.05% Tween 20. Thereafter, 100 μl of the substrate buffer solution was added to each well and shaken for 30 seconds, followed by incubation in an incubator at 37° C. for 1 hour. Then, 50 μl of 0.2N NaOH was added to each well to terminate the enzyme reaction and the absorbance of the reaction solution was measured with a microtiter plate reader. Under such conditions, the optimum pH for TRACP 5b was about 6.4 and that for TRACP 5a was 5.6.
(§2) Absorbance values due to the reaction of a buffer solution containing a substrate CNPP with each of TRACP 5a and TRACP 5b at pHs 6.2, 6.4, 6.6 and 6.8 were compared with results obtained in a comparative example using a buffer solution (pH 6.1) containing, as a substrate, PNPP that is considered suitable for the assay of TRACP 5b. According to the method disclosed in Japanese Patent Application Kohyo No. 2002-510050, the composition of this PNPP substrate buffer solution was as follows: PNPP 8 mM, sodium acetate 0.1M, sodium tartrate 40 mM, pH 6.1. As a sample of TRACP 5b, the same sample as in Example 1 was used. As a sample of TRACP 5a, a sample was used which had been prepared so that in the comparative example (PNPP was used at pH 6.1), a value for TRACP 5a might be one-tenth that for TRACP 5b according to the data disclosed in Japanese Patent Application Kohyo No. 2002-510050. The same assay procedure as in Example 1 was carried out and absorbance was used as an indication of the enzymatic activity.

In data set [2] the target is T1, TRACP 5a (Homo sapiens, UniProt P13686).
T1 construct: TRACP 5a derived from human serum and eluted from a HiTrap Heparin HP column; from tissue; host or cells: human serum, heparin column fraction
T1 sequence (P13686 22-325): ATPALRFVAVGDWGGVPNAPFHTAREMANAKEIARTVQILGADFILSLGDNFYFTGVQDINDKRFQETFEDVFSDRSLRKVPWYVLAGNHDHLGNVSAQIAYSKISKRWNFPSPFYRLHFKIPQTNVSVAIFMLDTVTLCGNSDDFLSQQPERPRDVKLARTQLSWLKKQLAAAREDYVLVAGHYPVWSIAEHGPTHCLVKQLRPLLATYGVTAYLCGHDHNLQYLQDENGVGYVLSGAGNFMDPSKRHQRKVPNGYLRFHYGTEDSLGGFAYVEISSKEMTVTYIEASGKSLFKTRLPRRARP
The data set can be described thus: Enzymatic activity of TRACP 5a bound to immobilized anti-TRACP 5b antibody plate, end-point absorbance. It counts as biochemical. How it is done:
as §1, §2

In data set [3] the test system is TRACP 5b. The data set can be described thus: Enzymatic activity of TRACP 5b bound to immobilized anti-TRACP 5b antibody plate, end-point absorbance. It counts as biochemical, human. As to conditions: pH 6.9.
For data set [4], the target named is T2, TRACP 5b (Homo sapiens, UniProt P13686).
T2 sequence (P13686 22-325): T1 sequence (P13686 22-325)
Conditions: pH 5.8; according to Clin. Chem., 47(1), 74-80; cited from earlier work.

The target in data set [5] is T1, TRACP 5a. As to conditions: pH 5.2; according to Clin. Chem., 47(1), 74-80; cited from earlier work.
Substrate in data set [6]: O=[N+]([O-])c1ccc(OP(=O)(O)O)c(Cl)c1
The data set can be described thus: Km measurement of substrate with TRACP 5b. It counts as biochemical, human. Conditions: other: pH 6.4. How it is done:
(§3) In order to investigate the difference between TRACP 5b and TRACP 5a in reactivity with 2-chloro-4-nitrophenylphosphoric acid (CNPP), Km for each of them was measured.
(§4) That is, for the assay of TRACP 5b, CNPP used in the present invention is more advantageous than PNPP from the viewpoint of affinity and specificity.

Substrate in data set [7]: O=[N+]([O-])c1ccc(OP(=O)(O)O)c(Cl)c1
The data set can be described thus: Km measurement of substrate with TRACP 5a. It counts as biochemical, human. As to conditions: other: pH 5.6. The method, then: as §3, §4

Where [8] appears, read: pH 6.1, PNPP 8 mM, sodium acetate 0.1M, sodium tartrate 40 mM.

Consider four molecules from patent US7465556B2, “Method of immunoassay tartrate resistant acid phosphatase 5b and kit to be used therein” (Nitto Boseki Co., Ltd., priority 2003, dated 2008).

With `O=[N+]([O-])c1ccc(OP(=O)(O)O)c(Cl)c1` [CNPP, 2-chloro-4-nitrophenylphosphoric acid], the “TRACP 5b/5a ratio” value in the data set on TRACP 5b [1] (pH 6.2) worked out at 13; in the data set with TRACP 5b [1] (pH 6.4), 17; in the data set on TRACP 5b [1] (pH 6.6) it was 18; with TRACP 5b [3] it was 16. In addition, the “absorbance (enzymatic activity), sample TRACP 5b” value in the data set with TRACP 5b [1] (pH 6.2) is recorded as 0.802; in the data set on TRACP 5b [1] (pH 6.4), 0.811; in the data set on TRACP 5b [1] (pH 6.6), 0.674; with TRACP 5b [3], 0.401. For the same molecule, at TRACP 5a [2] (CNPP 5 mM, Mes 0.1 M, sodium tartrate 40 mM, pH 5.6 to 6.8, 37° C. 1 hour), the “optimum pH for TRACP 5a” value was 5.6. In addition, the “absorbance (enzymatic activity), sample TRACP 5a” value turned out to be 0.062 at TRACP 5a [2] (pH 6.2), 0.047 on TRACP 5a [2] (pH 6.4), 0.038 on TRACP 5a [2] (pH 6.6) and 0.025 at TRACP 5a [2] (pH 6.9).
As usually defined, the Km is the concentration of substrate that gives half-maximal velocity. Take `O=[N+]([O-])c1ccc(OP(=O)(O)O)cc1` [PNPP, p-nitrophenylphosphoric acid, reference compound]: in the data set on TRACP 5b [1] (setting [8]), the “TRACP 5b/5a ratio” value is given as 10 and the “absorbance (enzymatic activity), sample TRACP 5b” value is reported as 0.981. Also, on TRACP 5a [2] (pH 6.1, PNPP 8 mM, sodium acetate 0.1M, sodium tartrate 40 mM, 5a sample prepared to give one-tenth of 5b value), the “absorbance (enzymatic activity), sample TRACP 5a” value worked out at 0.098. Further, the Km on TRACP 5b [4] is 7000 µM. The Km on TRACP 5a [5] was 1900 µM.

B1: TRACP 5b (Homo sapiens) (protein)
chain: T1 sequence (P13686 22-325)
For B1, in data set [6], the Km was 1500 µM.

B2: TRACP 5a (Homo sapiens) (protein)
chain: T1 sequence (P13686 22-325)
notes: TRACP 5a derived from human serum and eluted from a HiTrap Heparin HP column; from tissue; host or cells: human serum, heparin column fraction
Take B2: in data set [7], the Km came to 3500 µM.
